We go through four molecules from US6096744A, “Sulfonamide derivatives of substituted quinoxaline 2,3-diones as glutamate receptor antagonists” (Warner-Lambert Company, priority 1998, dated 2000).

The term IC50 denotes the concentration that gives 50% inhibition. Higher therefore signals lower potency.

Structures are written as SMILES.

The target in one assay is AMPA receptors. Nature of the assay: AMPA receptor binding affinity (Honore et al.).
Assay [1] concerns the target T1, glycine site of the NMDA receptor (Rattus norvegicus, UniProt P35439).
T1 construct: from tissue
Briefly: binding affinity for the glycine site of the NMDA receptor (Jones et al.).

Assay [2] has as its target kainate site (non-NMDA receptor). Briefly: kainate site (non-NMDA receptor) binding affinity (London and Coyle).

As for `Cc1c([N+](=O)[O-])cc2[nH]c(=O)c(=O)[nH]c2c1CN(C)S(=O)(=O)c1ccc2ccccc2c1` [Compound 4, Naphthalene-2-sulfonic acid methyl-(6-methyl-7-nitro-2,3-dioxo-1,2,3,4-tetrahydro-quinoxalin-5-ylmethyl)-amide], the IC50 at AMPA receptors is 18000 nM; in assay [1], above 1000 nM. Besides, the “IC50 KA” value in assay [2] was 26000 nM.
With `Cc1c([N+](=O)[O-])cc2[nH]c(=O)c(=O)[nH]c2c1CN(C)S(=O)(=O)c1c(C(C)C)cc(C(C)C)cc1C(C)C` [Compound 3, 2,4,6-Triisopropyl-N-methyl-N-(6-methyl-7-nitro-2,3-dioxo-1,2,3,4-tetrahydro-quinoxalin-5-ylmethyl)-benzenesulfonamide], the IC50 at AMPA receptors is 2600 nM; in assay [1], above 1000 nM. The “IC50 KA” value in assay [2] was determined as 4770 nM.
`Cc1ccc(S(=O)(=O)N(C)Cc2c(C)c([N+](=O)[O-])cc3[nH]c(=O)c(=O)[nH]c23)cc1` [Compound 2, 4,N-Dimethyl-N-(6-methyl-7-nitro-2,3-dioxo-1,2,3,4-tetrahydro-quinoxalin-5-ylmethyl)-benzenesulfonamide]: the 50% inhibitory concentration (IC50) is 560 nM at AMPA receptors and above 1000 nM in assay [1]. Moreover, the “IC50 KA” value in assay [2] was 2630 nM.
`Cc1c([N+](=O)[O-])cc2[nH]c(=O)c(=O)[nH]c2c1CN(C)S(C)(=O)=O` [Compound 1, N-Methyl-N-(6-methyl-7-nitro-2,3-dioxo-1,2,3,4-tetrahydro-quinoxalin-5-ylmethyl)-methanesulfonamide]: the figures for the IC50 (on AMPA receptors; in assay [1]) were 210 nM and 100 nM, respectively. The “IC50 KA” value in assay [2] came to 290 nM.
